Measured values: ChEMBL document CHEMBL5715956, “Selective Targeting of Bromodomains of the Bromodomain-PHD Fingers Family Impairs Osteoclast Differentiation” (ACS Chem Biol, 2017)

How the values were obtained:
[1] = biological target: Bromodomain-containing protein 4 (Homo sapiens) (UniProt O60885); assay: Binding affinity to BRD4 BD1 (unknown origin) assessed as change in enthalpy at 14 uM by Isothermal titration calorimetry
[2] = biological target: Bromodomain adjacent to zinc finger domain protein 2A (Homo sapiens) (UniProt Q9UIF9); conditions: dose 10.0 µM
[3] = biological target: Transcription intermediary factor 1-alpha (Homo sapiens) (UniProt O15164); conditions: dose 10.0 µM
Homo sapiens [4] = species: Homo sapiens; conditions: dose 10.0 µM
[5] = biological target: Histone-lysine N-methyltransferase 2A (Homo sapiens) (UniProt Q03164); conditions: dose 10.0 µM
Homo sapiens [6] = species: Homo sapiens; conditions: dose 10.0 µM; remark: listed apart in the source
Peregrin (Homo sapiens) = biological target: T1, Peregrin (Homo sapiens) (UniProt P55201); assay: Binding affinity to […] (unknown origin) assessed as change in gibbs free energy at 17 uM by Isothermal titration calorimetry
T1 sequence (whole entry): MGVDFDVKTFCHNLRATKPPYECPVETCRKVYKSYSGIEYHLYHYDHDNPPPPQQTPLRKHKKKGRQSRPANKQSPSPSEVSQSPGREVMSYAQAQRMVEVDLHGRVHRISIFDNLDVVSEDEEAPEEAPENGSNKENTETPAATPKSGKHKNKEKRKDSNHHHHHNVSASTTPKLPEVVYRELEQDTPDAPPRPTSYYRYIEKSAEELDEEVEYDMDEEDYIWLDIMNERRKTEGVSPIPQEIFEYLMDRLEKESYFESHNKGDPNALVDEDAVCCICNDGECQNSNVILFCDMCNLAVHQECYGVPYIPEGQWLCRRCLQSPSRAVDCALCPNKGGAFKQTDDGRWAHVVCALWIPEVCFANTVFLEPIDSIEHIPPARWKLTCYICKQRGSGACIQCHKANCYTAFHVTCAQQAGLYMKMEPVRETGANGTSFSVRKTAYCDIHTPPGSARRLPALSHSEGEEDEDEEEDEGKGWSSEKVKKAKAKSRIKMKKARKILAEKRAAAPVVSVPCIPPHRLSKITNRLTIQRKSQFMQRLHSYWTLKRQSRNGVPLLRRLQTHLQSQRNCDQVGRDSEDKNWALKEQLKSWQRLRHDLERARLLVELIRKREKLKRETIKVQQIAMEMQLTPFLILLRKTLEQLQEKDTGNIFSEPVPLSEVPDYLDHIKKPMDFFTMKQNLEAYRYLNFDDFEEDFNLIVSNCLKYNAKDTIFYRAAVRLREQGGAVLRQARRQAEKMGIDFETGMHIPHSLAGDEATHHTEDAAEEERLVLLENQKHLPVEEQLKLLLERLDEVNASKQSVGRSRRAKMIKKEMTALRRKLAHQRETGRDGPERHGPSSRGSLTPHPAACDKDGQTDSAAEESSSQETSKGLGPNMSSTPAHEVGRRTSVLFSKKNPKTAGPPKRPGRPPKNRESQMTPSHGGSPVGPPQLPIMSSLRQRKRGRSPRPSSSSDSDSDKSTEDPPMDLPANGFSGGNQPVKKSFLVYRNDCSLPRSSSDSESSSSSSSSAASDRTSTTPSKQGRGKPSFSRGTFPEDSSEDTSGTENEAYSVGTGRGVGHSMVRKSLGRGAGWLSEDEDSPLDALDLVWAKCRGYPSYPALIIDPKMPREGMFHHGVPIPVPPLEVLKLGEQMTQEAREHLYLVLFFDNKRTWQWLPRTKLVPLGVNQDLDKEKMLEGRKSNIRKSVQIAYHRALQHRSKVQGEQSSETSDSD

[7] = biological target: Bromodomain-containing protein 3 (Homo sapiens) (UniProt Q15059); conditions: dose 10.0 µM
[8] = biological target: Bromodomain-containing protein 4 (Homo sapiens) (UniProt O60885); conditions: dose 10.0 µM
[9] = biological target: Protein polybromo-1 (Homo sapiens) (UniProt Q86U86); conditions: dose 10.0 µM
[10] = biological target: T2, Bromodomain and PHD finger-containing protein 3 (Homo sapiens) (UniProt Q9ULD4); assay: Binding affinity to BRPF3 (unknown origin) assessed as change in entropy TdeltaS at 12 uM by Isothermal titration calorimetry
T2 sequence (whole entry): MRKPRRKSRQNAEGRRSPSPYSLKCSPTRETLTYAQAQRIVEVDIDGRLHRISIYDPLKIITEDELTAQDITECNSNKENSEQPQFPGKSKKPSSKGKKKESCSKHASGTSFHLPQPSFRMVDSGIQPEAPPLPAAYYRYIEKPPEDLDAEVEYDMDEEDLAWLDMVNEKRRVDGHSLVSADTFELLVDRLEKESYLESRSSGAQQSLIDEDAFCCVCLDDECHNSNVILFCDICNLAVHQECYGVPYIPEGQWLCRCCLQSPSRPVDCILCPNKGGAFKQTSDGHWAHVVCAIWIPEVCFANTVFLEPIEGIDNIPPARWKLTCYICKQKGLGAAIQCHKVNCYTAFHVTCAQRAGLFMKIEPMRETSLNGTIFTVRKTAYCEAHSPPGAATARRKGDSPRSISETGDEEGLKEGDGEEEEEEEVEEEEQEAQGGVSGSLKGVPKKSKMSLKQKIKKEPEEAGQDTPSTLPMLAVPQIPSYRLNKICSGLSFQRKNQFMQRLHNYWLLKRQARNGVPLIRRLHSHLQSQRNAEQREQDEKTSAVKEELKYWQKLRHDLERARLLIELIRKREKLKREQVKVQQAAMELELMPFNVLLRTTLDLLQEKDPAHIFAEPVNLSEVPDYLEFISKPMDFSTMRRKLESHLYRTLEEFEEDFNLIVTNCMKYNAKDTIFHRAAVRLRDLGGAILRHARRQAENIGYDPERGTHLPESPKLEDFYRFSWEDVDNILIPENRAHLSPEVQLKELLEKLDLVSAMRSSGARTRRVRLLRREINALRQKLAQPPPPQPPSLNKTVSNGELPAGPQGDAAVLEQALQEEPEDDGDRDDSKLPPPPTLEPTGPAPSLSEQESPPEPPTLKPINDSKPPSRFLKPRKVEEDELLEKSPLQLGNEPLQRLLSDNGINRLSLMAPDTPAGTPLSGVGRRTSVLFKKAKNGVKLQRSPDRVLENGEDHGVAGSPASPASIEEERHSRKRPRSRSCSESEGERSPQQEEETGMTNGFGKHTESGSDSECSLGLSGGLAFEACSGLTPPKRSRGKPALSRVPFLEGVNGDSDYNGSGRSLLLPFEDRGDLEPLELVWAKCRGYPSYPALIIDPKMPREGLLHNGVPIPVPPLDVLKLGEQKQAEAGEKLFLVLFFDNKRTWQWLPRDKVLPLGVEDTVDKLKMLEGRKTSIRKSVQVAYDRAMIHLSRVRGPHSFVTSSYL

[11] = biological target: 5-hydroxytryptamine receptor 5A (Homo sapiens) (UniProt P47898); assay: Inhibition of 5HT5A (unknown origin) at 10 uM relative to control
Chain of 5-hydroxytryptamine receptor 5A (Homo sapiens) (P47898 whole entry): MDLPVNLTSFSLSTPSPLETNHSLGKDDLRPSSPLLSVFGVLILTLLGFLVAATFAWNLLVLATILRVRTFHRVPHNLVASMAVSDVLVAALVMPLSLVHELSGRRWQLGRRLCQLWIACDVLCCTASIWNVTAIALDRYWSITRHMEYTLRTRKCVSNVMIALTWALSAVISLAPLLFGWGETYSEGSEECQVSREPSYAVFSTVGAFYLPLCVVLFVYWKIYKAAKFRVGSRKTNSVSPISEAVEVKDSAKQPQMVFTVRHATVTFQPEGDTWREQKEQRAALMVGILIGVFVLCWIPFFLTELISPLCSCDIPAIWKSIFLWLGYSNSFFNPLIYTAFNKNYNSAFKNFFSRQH

Chain of Transcription intermediary factor 1-alpha (Homo sapiens) (O15164 whole entry): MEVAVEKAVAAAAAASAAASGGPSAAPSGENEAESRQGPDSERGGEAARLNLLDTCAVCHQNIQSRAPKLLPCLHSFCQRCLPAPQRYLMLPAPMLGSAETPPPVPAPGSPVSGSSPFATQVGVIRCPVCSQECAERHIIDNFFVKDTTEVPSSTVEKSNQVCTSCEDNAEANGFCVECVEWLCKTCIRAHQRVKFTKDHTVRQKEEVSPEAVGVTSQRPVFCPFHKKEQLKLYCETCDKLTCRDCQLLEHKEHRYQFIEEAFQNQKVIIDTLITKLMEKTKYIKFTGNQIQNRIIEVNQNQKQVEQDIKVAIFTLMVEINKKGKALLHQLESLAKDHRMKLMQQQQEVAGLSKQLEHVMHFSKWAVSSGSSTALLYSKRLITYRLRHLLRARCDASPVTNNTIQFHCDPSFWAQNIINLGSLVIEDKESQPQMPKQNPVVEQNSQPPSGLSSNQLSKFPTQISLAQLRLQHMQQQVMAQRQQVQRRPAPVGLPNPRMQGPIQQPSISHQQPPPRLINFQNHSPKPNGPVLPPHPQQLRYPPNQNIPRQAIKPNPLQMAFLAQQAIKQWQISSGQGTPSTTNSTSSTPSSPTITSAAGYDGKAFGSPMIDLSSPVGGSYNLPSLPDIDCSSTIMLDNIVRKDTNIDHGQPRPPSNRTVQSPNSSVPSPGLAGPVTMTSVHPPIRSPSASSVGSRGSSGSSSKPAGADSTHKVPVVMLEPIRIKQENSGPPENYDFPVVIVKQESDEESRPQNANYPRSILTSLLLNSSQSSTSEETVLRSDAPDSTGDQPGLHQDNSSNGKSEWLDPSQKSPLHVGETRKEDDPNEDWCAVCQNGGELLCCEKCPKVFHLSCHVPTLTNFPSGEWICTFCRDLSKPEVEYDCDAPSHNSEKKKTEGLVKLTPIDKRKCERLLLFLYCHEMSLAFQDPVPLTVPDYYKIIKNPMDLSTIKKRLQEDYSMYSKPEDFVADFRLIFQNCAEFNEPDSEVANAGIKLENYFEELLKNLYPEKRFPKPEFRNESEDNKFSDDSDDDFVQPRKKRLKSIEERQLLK
Chain of Bromodomain-containing protein 3 (Homo sapiens) (Q15059 2-726 limits assumed): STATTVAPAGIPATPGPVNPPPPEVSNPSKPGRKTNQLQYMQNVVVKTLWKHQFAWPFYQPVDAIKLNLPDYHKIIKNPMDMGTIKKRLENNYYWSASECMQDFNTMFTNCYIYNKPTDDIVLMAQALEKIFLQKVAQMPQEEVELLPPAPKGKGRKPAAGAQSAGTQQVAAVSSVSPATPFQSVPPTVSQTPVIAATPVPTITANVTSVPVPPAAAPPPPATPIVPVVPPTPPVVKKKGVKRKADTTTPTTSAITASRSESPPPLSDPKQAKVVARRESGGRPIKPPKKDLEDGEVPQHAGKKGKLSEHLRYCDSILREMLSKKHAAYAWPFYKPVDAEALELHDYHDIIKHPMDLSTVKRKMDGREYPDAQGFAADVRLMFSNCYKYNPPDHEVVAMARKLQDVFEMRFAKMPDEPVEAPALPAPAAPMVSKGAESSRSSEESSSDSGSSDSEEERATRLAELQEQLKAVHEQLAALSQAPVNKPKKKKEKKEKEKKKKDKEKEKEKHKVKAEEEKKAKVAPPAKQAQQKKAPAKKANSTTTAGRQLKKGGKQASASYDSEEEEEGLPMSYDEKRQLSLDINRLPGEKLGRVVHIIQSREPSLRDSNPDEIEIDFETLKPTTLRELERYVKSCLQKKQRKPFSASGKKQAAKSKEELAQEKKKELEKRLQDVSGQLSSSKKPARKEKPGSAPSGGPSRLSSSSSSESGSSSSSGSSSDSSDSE
Chain of Bromodomain adjacent to zinc finger domain protein 2A (Homo sapiens) (Q9UIF9 whole entry, the tested form may be a part): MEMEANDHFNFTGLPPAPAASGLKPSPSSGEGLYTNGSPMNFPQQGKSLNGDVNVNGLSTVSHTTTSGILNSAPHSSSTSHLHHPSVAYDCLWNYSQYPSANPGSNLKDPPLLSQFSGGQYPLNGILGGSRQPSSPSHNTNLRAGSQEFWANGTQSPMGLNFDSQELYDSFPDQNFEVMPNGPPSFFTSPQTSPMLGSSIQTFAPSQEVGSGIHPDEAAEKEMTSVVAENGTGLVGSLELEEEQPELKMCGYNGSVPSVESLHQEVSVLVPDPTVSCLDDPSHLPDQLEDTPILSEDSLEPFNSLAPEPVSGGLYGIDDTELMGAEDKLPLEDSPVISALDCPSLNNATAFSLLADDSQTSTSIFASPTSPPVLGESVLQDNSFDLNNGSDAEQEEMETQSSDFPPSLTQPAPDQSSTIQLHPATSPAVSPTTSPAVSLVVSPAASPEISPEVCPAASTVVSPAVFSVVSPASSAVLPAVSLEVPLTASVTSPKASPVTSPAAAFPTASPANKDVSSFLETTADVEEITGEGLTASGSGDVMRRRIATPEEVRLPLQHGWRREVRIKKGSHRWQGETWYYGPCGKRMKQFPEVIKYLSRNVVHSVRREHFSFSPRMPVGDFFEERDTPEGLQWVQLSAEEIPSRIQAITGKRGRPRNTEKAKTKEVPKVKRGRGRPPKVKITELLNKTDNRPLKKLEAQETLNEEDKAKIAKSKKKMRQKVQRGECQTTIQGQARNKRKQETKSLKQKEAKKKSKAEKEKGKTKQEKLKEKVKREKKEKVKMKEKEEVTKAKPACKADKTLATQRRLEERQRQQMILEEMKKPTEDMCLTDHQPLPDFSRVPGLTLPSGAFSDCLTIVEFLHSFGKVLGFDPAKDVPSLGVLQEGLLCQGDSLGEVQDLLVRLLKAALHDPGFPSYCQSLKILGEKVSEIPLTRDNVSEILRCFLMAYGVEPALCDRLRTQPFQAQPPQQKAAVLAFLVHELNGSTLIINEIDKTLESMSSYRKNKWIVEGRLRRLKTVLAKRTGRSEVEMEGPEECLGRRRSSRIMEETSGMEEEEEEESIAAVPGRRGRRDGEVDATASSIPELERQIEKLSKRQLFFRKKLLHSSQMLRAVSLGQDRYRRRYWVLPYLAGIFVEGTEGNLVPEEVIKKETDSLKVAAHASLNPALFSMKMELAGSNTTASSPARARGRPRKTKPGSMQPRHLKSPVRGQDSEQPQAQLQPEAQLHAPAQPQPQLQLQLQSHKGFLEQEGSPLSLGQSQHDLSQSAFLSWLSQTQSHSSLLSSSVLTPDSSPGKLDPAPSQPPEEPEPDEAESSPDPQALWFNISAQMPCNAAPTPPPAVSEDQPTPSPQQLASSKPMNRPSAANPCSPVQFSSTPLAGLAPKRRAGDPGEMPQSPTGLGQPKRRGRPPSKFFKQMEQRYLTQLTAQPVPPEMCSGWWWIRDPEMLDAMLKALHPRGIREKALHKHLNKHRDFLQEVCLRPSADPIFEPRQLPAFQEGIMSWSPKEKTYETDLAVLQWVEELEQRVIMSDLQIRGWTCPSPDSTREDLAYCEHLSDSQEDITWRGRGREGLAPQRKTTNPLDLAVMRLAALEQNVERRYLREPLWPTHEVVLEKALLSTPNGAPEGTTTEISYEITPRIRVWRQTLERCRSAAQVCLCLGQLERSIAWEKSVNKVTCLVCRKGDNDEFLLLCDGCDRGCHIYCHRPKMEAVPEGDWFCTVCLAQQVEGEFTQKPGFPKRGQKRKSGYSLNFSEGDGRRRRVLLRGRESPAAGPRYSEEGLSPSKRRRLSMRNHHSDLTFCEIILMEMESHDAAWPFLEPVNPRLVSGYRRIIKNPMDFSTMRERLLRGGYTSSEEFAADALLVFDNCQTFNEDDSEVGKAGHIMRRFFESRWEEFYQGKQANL

deltaH [1]: -29 kJ/mol | ΔTm [2]: 0.2 °C | ΔTm [3]: 1.8 °C | ΔTm (Homo sapiens [4]): -0.4 °C | ΔTm [5]: 0.3 °C | ΔTm (Homo sapiens [6]): 0.5 °C | deltaG (Peregrin (Homo sapiens)): -38.7 kJ/mol | ΔTm [7]: 1.6 °C | ΔTm [8]: 0.6 °C | ΔTm [9]: 0.6 °C | TdeltaS [10]: 1.79 kJ/mol | inhibition [11]: 22%
Compound: COc1cc2c(cc1NS(=O)(=O)c1ccc(Br)cc1C)n(C)c(=O)n2C
